What follows are compounds tested on Corn leaf discs (variety Multitop) (assay: Dark induced senescence of corn leaf). Conditions: Zea mays, foliar, 192 h; corn leaf discs in the dark, 23° C., 75% humidity, 8 days; 100 μM-0.0001 μM, 0.5% DMSO; image analysis; read-out: IC50 (concentration at which 50% senescence was achieved).
Assay type: in vivo
Description: Corn plants of variety Multitop were grown in a greenhouse with relative 75% humidity and at 23-25° C. for 6 weeks. 1.4 cm diameter leaf discs were placed into 24-well plates containing test compounds in a concentration gradient (100 μM-0.0001 μM) at a final concentration of 0.5% DMSO. Each concentration was tested in 12 replicates. Plates were sealed with seal foil. The foil was pierced to provide gas exchange in each well. The plates were placed into the completely dark climatic chamber. Plates were incubated in the chamber with 75% humidity and at 23° C. for 8 days. On days 0, 5, 6, 7 and 8 photographs were taken of each plate, and image analysis conducted with a macro developed using the ImageJ software. The image analysis was used to determine the concentration at which 50% senescence was achieved (IC50), see Table 3. The lower the value, the higher senescence induction potency.

Compound	IC50 [µM]
CCOC(=O)/C(=C/OC1C=C(C)C(=O)O1)n1c(=O)oc2ccccc21 (stereo not shown) [Compound I-68-Z, ethyl (Z)-3-[(4-methyl-5-oxo-2H-furan-2-yl)oxy]-2-(2-oxo-1,3-benzoxazol-3-yl)prop-2-enoate]	< 3
CCOC(=O)/C(=C/OC1C=C(C)C(=O)O1)n1cnc2c(N(C)C)nc(F)nc21 (stereo not shown) [Compound I-60-Z, ethyl (Z)-2-[6-(dimethylamino)-2-fluoro-purin-9-yl]-3-[(4-methyl-5-oxo-2H-furan-2-yl)oxy]prop-2-enoate]	< 3
CC1=C(C)C(O/C=C(\C#N)n2ncc3ccccc32)OC1=O (stereo not shown) [Compound I-47-E, (E)-3-[(3,4-dimethyl-5-oxo-2H-furan-2-yl)oxy]-2-indazol-1-yl-prop-2-enenitrile]	< 3
CCOC(=O)/C(=C/OC1OC(=O)C(C)=C1C)n1c(C)c(C)c2ccccc21 (stereo not shown) [Compound I-30-Z, ethyl (Z)-2-(2,3-dimethylindol-1-yl)-3-[(3,4-dimethyl-5-oxo-2H-furan-2-yl)oxy]prop-2-enoate]	< 3
CCOC(=O)/C(=C/OC1C=C(C)C(=O)O1)n1ccc2cc(F)ccc21 (stereo not shown) [Compound I-3-Z, ethyl (Z)-2-(5-fluoroindol-1-yl)-3-[(4-methyl-5-oxo-2H-furan-2-yl)oxy]prop-2-enoate]	< 3
CCOC(=O)/C(=C/OC1OC(=O)C(C)=C1C)n1c(C)nc2ccccc21 (stereo not shown) [Compound I-59-Z, ethyl (Z)-3-[(3,4-dimethyl-5-oxo-2H-furan-2-yl)oxy]-2-(2-methylbenzimidazol-1-yl)prop-2-enoate]	< 3
CCOC(=O)/C(=C/OC1OC(=O)C(C)=C1C)N1C(=O)C2(CC2)c2ccccc21 (stereo not shown) [Compound I-67-Z, ethyl (Z)-3-[(3,4-dimethyl-5-oxo-2H-furan-2-yl)oxy]-2-(2′-oxospiro[cyclopropane-1,3′-indoline]-1′-yl)prop-2-enoate]	< 3
CCOC(=O)/C(=C/OC1C=C(C)C(=O)O1)N1CCc2cc(Br)ccc21 (stereo not shown) [Compound I-72-Z, ethyl (Z)-2-(5-bromoindolin-1-yl)-3-[(4-methyl-5-oxo-2H-furan-2-yl)oxy]prop-2-enoate]	< 3
CCOC(=O)/C(=C/OC1C=C(C)C(=O)O1)n1c(C)c(C)c2ccccc21 (stereo not shown) [Compound I-29-Z, ethyl (Z)-2-(2,3-dimethylindol-1-yl)-3-[(4-methyl-5-oxo-2H-furan-2-yl)oxy]prop-2-enoate]	< 3
CCOC(=O)/C(=C/OC1C=C(C)C(=O)O1)n1cnc2ccccc21 (stereo not shown) [Compound I-56-Z, ethyl (Z)-2-(benzimidazol-1-yl)-3-[(4-methyl-5-oxo-2H-furan-2-yl)oxy]prop-2-enoate]	< 3
CCOC(=O)/C(=C/OC1C=C(C)C(=O)O1)N1C(=O)C2(CC2)c2ccccc21 (stereo not shown) [Compound I-66-Z, ethyl (Z)-3-[(4-methyl-5-oxo-2H-furan-2-yl)oxy]-2-(2′-oxospiro[cyclopropane-1,3′-indoline]-1′-yl)prop-2-enoate]	< 3
CCOC(=O)/C(=C/OC1OC(=O)C(C)=C1C)n1c(=O)sc2ccccc21 (stereo not shown) [Compound I-65-Z]	< 3
CCOC(=O)/C(=C/OC1C=C(C)C(=O)O1)n1c(=O)sc2ccccc21 (stereo not shown) [Compound I-64-Z, ethyl (Z)-3-[(4-methyl-5-oxo-2H-furan-2-yl)oxy]-2-(2-oxo-1,3-benzothiazol-3-yl)prop-2-enoate]	< 3
